Laboratory results published in patent publication US20230278972A1, “SUBSTITUTED HALOALKYL SULFONANILIDE HERBICIDES” (FMC Corporation, priority 2020, published 2023).

Experiments:
Format in all cases: in vivo
[1] = test system: barnyardgrass (Echinochloa crus-galli); test: Test A preemergence, barnyardgrass; conditions: Preemergence; for Plant response rating, Barnyardgrass: 0 to 100 scale (0 no effect, 100 complete control); for Barnyardgrass plant response rating: visual injury on 0 to 100 scale (0 no effect, 100 complete control), approximately 10 days
In short: (§1)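 Compounds in non-phytotoxic solvent with surfactant. Soil: loam/sand. Preemergence via directed soil spray after seeding; postemergence on seedlings 2–10 cm, one- to two-leaf.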

[2] = test system: kochia (Bassia scoparia); test: Test A preemergence, kochia; conditions: Preemergence; for Plant response rating, Kochia: 0 to 100 scale (0 no effect, 100 complete control); for Kochia plant response rating: visual injury on 0 to 100 scale (0 no effect, 100 complete control), approximately 10 days
In short: as §1

[3] = test system: ragweed (common ragweed, Ambrosia artemisiifolia); test: Test A preemergence, ragweed; conditions: Preemergence; for Plant response rating, Ragweed: 0 to 100 scale (0 no effect, 100 complete control); for Ragweed plant response rating: visual injury on 0 to 100 scale (0 no effect, 100 complete control), approximately 10 days
In short: as §1

[4] = test system: Ryegrass, Italian (Italian ryegrass, Lolium multiflorum); test: Test A preemergence, Ryegrass, Italian; conditions: Preemergence; for Plant response rating, Ryegrass, Italian: 0 to 100 scale (0 no effect, 100 complete control); for Ryegrass, Italian plant response rating: visual injury on 0 to 100 scale (0 no effect, 100 complete control), approximately 10 days
In short: as §1

[5] = test system: Foxtail, Giant (giant foxtail, Setaria faberi); test: Test A preemergence, Foxtail, Giant; conditions: Preemergence; for Plant response rating, Foxtail, Giant: 0 to 100 scale (0 no effect, 100 complete control); for Foxtail, Giant plant response rating: visual injury on 0 to 100 scale (0 no effect, 100 complete control), approximately 10 days
In short: as §1

[6] = test system: pigweed (Amaranthus retroflexus); test: Test A preemergence, pigweed; conditions: for Plant response rating, Pigweed: 0 to 100 scale (0 no effect, 100 complete control); for Pigweed plant response rating: visual injury on 0 to 100 scale (0 no effect, 100 complete control), approximately 10 days
In short: (§2)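 Postemergence ratings come from foliar sprays onto one- to two-leaf plants of 2 to 10 cm grown in loam/sand; preemergence ratings come from a directed spray onto the soil of newly seeded pots. Formulation was a surfactant-containing non-phytotoxic solvent blend.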

[7] = test system: barnyardgrass (Echinochloa crus-galli); test: Test A postemergence, barnyardgrass; conditions: Postemergence, 0 to 100 scale (0 no effect, 100 complete control); for Barnyardgrass plant response rating: visual injury vs untreated controls after approx. 10 days
In short: as §2

[8] = test system: kochia (Bassia scoparia); test: Test A postemergence, kochia; conditions: Postemergence, 0 to 100 scale (0 no effect, 100 complete control); for Kochia plant response rating: visual injury vs untreated controls after approx. 10 days
In short: as §1

[9] = test system: ragweed (common ragweed, Ambrosia artemisiifolia); test: Test A postemergence, ragweed; conditions: Postemergence, 0 to 100 scale (0 no effect, 100 complete control); for Ragweed plant response rating: visual injury vs untreated controls after approx. 10 days
In short: as §1

[10] = test system: Ryegrass, Italian (Italian ryegrass, Lolium multiflorum); test: Test A postemergence, Ryegrass, Italian; conditions: Postemergence, 0 to 100 scale (0 no effect, 100 complete control); for Ryegrass, Italian plant response rating: visual injury vs untreated controls after approx. 10 days
In short: as §1

[11] = test system: Foxtail, Giant (giant foxtail, Setaria faberi); test: Test A postemergence, Foxtail, Giant; conditions: Postemergence, 0 to 100 scale (0 no effect, 100 complete control); for Foxtail, Giant plant response rating: visual injury vs untreated controls after approx. 10 days
In short: as §1

[12] = test system: pigweed (Amaranthus retroflexus); test: Test A postemergence, pigweed; conditions: Postemergence, 0 to 100 scale (0 no effect, 100 complete control); for Pigweed plant response rating: visual injury vs untreated controls after approx. 10 days
In short: as §1

[13] = test system: wheat (Triticum aestivum); test: Test A postemergence, wheat; conditions: Postemergence, 0 to 100 scale (0 no effect, 100 complete control); for Wheat plant response rating: visual injury vs untreated controls after approx. 10 days
In short: as §2

[14] = test system: corn (Zea mays); test: Test A postemergence, corn; conditions: Postemergence, 0 to 100 scale (0 no effect, 100 complete control); for Corn plant response rating: visual injury vs untreated controls after approx. 10 days
In short: as §1

[15] = test system: blackgrass (Alopecurus myosuroides); test: Test A postemergence, blackgrass; conditions: Postemergence, 0 to 100 scale (0 no effect, 100 complete control); for Blackgrass plant response rating: visual injury vs untreated controls after approx. 10 days
In short: as §1

[16] = test system: galium (catchweed bedstraw, Galium aparine); test: Test A postemergence, galium; conditions: Postemergence, 0 to 100 scale (0 no effect, 100 complete control); for Galium plant response rating: visual injury vs untreated controls after approx. 10 days
In short: as §2

[17] = 125 g ai/ha, visual injury, approx. 10 days
[18] = 500 g ai/ha, visual injury approx. 10 days
[19] = 125 g ai/ha, visual injury approx. 10 days

SMILES: Cc1cc(Cl)c(C(=O)N2CCOCC2)cc1NS(=O)(=O)C(F)(F)F [Compound 248]
- Plant response rating, Barnyardgrass [1, 17]: 80
- Barnyardgrass plant response rating ([1]; 500 g ai/ha): 90
- Plant response rating, Kochia [2, 17]: 90
- Kochia plant response rating ([2]; 500 g ai/ha): 90
- Plant response rating, Ragweed [3, 17]: 80
- Ragweed plant response rating ([3]; 500 g ai/ha): 90
- Plant response rating, Ryegrass, Italian [4, 17]: 70
- Ryegrass, Italian plant response rating ([4]; 500 g ai/ha): 90
- Plant response rating, Foxtail, Giant [5, 17]: 40
- Foxtail, Giant plant response rating ([5]; 500 g ai/ha): 80
- Plant response rating, Pigweed [6, 17]: 90
- Pigweed plant response rating ([6]; 500 g ai/ha): 90
- Plant response rating, Barnyardgrass ([7]; 125 g ai/ha): 60
- Plant response rating, Barnyardgrass [7, 18]: 90
- Plant response rating, Kochia ([8]; 125 g ai/ha): 60
- Plant response rating, Kochia [8, 18]: 90
- Plant response rating, Ragweed ([9]; 125 g ai/ha): 90
- Plant response rating, Ragweed [9, 18]: 90
- Plant response rating, Ryegrass, Italian ([10]; 125 g ai/ha): 0
- Plant response rating, Ryegrass, Italian [10, 18]: 70
- Plant response rating, Foxtail, Giant ([11]; 125 g ai/ha): 20
- Plant response rating, Foxtail, Giant [11, 18]: 50
- Plant response rating, Pigweed ([12]; 125 g ai/ha): 80
- Plant response rating, Pigweed [12, 18]: 80
- Plant response rating, Wheat ([13]; 125 g ai/ha): 40
- Plant response rating, Wheat [13, 18]: 60
- Plant response rating, Corn ([14]; 125 g ai/ha): 0
- Plant response rating, Corn [14, 18]: 0
- Plant response rating, Blackgrass ([15]; 125 g ai/ha): 0
- Plant response rating, Blackgrass [15, 18]: 60
- Plant response rating, Galium ([16]; 125 g ai/ha): 70
- Plant response rating, Galium [16, 18]: 90

SMILES: Cc1cc(C)c(C(=O)N2CCC3(CCCCC3)CC2)cc1NS(=O)(=O)C(F)(F)F [Compound 195]
- Plant response rating, Barnyardgrass [1, 17]: 60
- Plant response rating, Barnyardgrass ([1]; 500 g ai/ha): 90
- Plant response rating, Kochia [2, 17]: 0
- Plant response rating, Kochia ([2]; 500 g ai/ha): 0
- Plant response rating, Ragweed [3, 17]: 0
- Plant response rating, Ragweed ([3]; 500 g ai/ha): 0
- Plant response rating, Ryegrass, Italian [4, 17]: 20
- Plant response rating, Ryegrass, Italian ([4]; 500 g ai/ha): 90
- Plant response rating, Foxtail, Giant [5, 17]: 70
- Plant response rating, Foxtail, Giant ([5]; 500 g ai/ha): 90
- Plant response rating, Pigweed [6, 17]: 60
- Plant response rating, Pigweed ([6]; 500 g ai/ha): 80
- Plant response rating, Barnyardgrass ([7]; 125 g ai/ha): 0
- Barnyardgrass plant response rating ([7]; 500 g ai/ha): 0
- Plant response rating, Kochia ([8]; 125 g ai/ha): 0
- Kochia plant response rating ([8]; 500 g ai/ha): 0
- Plant response rating, Ragweed ([9]; 125 g ai/ha): 0
- Ragweed plant response rating ([9]; 500 g ai/ha): 50
- Plant response rating, Ryegrass, Italian ([10]; 125 g ai/ha): 0
- Ryegrass, Italian plant response rating ([10]; 500 g ai/ha): 0
- Plant response rating, Foxtail, Giant ([11]; 125 g ai/ha): 0
- Foxtail, Giant plant response rating ([11]; 500 g ai/ha): 0
- Plant response rating, Pigweed ([12]; 125 g ai/ha): 0
- Pigweed plant response rating ([12]; 500 g ai/ha): 0
- Plant response rating, Wheat ([13]; 125 g ai/ha): 0
- Wheat plant response rating ([13]; 500 g ai/ha): 0
- Plant response rating, Corn ([14]; 125 g ai/ha): 20
- Corn plant response rating ([14]; 500 g ai/ha): 0
- Plant response rating, Blackgrass ([15]; 125 g ai/ha): 0
- Blackgrass plant response rating ([15]; 500 g ai/ha): 0
- Plant response rating, Galium ([16]; 125 g ai/ha): 10
- Galium plant response rating ([16]; 500 g ai/ha): 20

SMILES: Cc1cc(C)c(-c2ccnn(CC(F)(F)F)c2=O)cc1NS(=O)(=O)C(F)(F)F [Compound 57]
- Barnyardgrass plant response rating ([1]; 125 g ai/ha): 100
- Plant response rating, Barnyardgrass ([1]; 500 g ai/ha): 100
- Kochia plant response rating ([2]; 125 g ai/ha): 60
- Plant response rating, Kochia ([2]; 500 g ai/ha): 60
- Ragweed plant response rating ([3]; 125 g ai/ha): 40
- Plant response rating, Ragweed ([3]; 500 g ai/ha): 70
- Ryegrass, Italian plant response rating ([4]; 125 g ai/ha): 90
- Plant response rating, Ryegrass, Italian ([4]; 500 g ai/ha): 90
- Foxtail, Giant plant response rating ([5]; 125 g ai/ha): 100
- Plant response rating, Foxtail, Giant ([5]; 500 g ai/ha): 100
- Pigweed plant response rating ([6]; 125 g ai/ha): 50
- Plant response rating, Pigweed ([6]; 500 g ai/ha): 80
- Plant response rating, Barnyardgrass [7, 19]: 40
- Barnyardgrass plant response rating ([7]; 500 g ai/ha): 90
- Plant response rating, Kochia [8, 19]: 0
- Kochia plant response rating ([8]; 500 g ai/ha): 20
- Plant response rating, Ragweed [9, 19]: 0
- Ragweed plant response rating ([9]; 500 g ai/ha): 30
- Plant response rating, Ryegrass, Italian [10, 19]: 30
- Ryegrass, Italian plant response rating ([10]; 500 g ai/ha): 90
- Plant response rating, Foxtail, Giant [11, 19]: 30
- Foxtail, Giant plant response rating ([11]; 500 g ai/ha): 90
- Plant response rating, Pigweed [12, 19]: 0
- Pigweed plant response rating ([12]; 500 g ai/ha): 50
- Plant response rating, Wheat [13, 19]: 60
- Wheat plant response rating ([13]; 500 g ai/ha): 70
- Plant response rating, Corn [14, 19]: 30
- Corn plant response rating ([14]; 500 g ai/ha): 80
- Plant response rating, Blackgrass [15, 19]: 0
- Blackgrass plant response rating ([15]; 500 g ai/ha): 70
- Plant response rating, Galium [16, 19]: 80
- Galium plant response rating ([16]; 500 g ai/ha): 90
